The values below are quoted from earlier work in patent publication US4987122A, “Peptide compounds and medical method of use thereof” (Nycomed AS, priority 1986, dated 1991).

[ ]: non-standard residue; d: D form. pGlu = O=C1CC[C@@H](C(=O)O)N1

The conditions of series [1]: subjected to freezing and thawing; reversed by treatment with mercaptoethanol.
Another series has as its system granulopoiesis. The following applies: as reported in the European patent application.

On to “pyroGlu-Glu-Asp-Cys-LysOH ([pGlu]EDCK-OH; SMILES NCCCC[C@H](NC(=O)[C@H](CS)NC(=O)[C@H](CC(=O)O)NC(=O)[C@H](CCC(=O)O)NC(=O)[C@@H]1CCC(=O)N1)C(=O)O)”, for which the “activity after freezing and thawing” value in series [1] is recorded as “stimulatory activity”. For “pyroGlu-Asp-Asp-Cys-LysOH ([pGlu]DDCK-OH; SMILES NCCCC[C@H](NC(=O)[C@H](CS)NC(=O)[C@H](CC(=O)O)NC(=O)[C@H](CC(=O)O)NC(=O)[C@@H]1CCC(=O)N1)C(=O)O) [synthetic compound with the structure postulated for the natural granulopoiesis factor]”, in the series with granulopoiesis, the “activity of the synthetic compound” value is “inactive”.
